The values that follow come from PMC12495087 (ESMO Open, 2025).

The subject of experiment [1] is RET-mutant MTC. Kind of experiment: phase I study: tumor response per RECIST v.1.1, MTC. Format: in vivo, human.
Experiment [2] concerns vascular endothelial growth factor receptor 2. Conditions: cited from earlier work.
Experiment [3] addresses RET. The note with it: read-out: kd, potency against RET; cited from earlier work.
In experiment [4] the test system is RET-fusion-positive NSCLC. Kind of experiment: phase I study: tumor response per RECIST v.1.1, NSCLC. It is filed as in vivo, human.
In experiment [5] the test system is RET G810. The note with it: cited from earlier work.

Structures are written as SMILES. A value given as a limit tells only on which side of the number the result lay.

Turning to `COc1cc2cc(-c3ccc(CC(=O)Nc4cc(C(C)(C)C(F)(F)F)no4)cn3)cnc2cc1OC` [BOS172738], the “median PFS” value came out at 12.75 months in experiment [1] (MTC) and 6.18 months in experiment [4] (NSCLC). The “median DoR” value in experiment [1] (confirmed responders with MTC) worked out at 19.15 months; in experiment [4] (confirmed responders with NSCLC), 10.17 months. Also, the “specificity to RET compared with vascular endothelial growth factor receptor 2” value in experiment [2] is listed as > 300 fold. For the same compound, in experiment [3], the Kd is ≤ 1 nM. Moreover, the “activity against RET G810 resistance” value in experiment [5] was “able to overcome RET G810 resistance”.

As a reminder, the Kd is the constant that tells how readily two partners part at equilibrium.
